Reference: patent publication US20110059970A1, “4-PHENYL-1,3-THIAZOLES AND 4-PHENYL-1,3-OXAZOLES DERIVATIVES AS CANNABINOID RECEPTOR LIGANDS” (IPSEN PHARMA S.A.S., priority 2007, published 2011)
Where a name gives a salt, the structure may show the parent alone.

biological target: T1, human CB2 receptors (Homo sapiens, UniProt P34972); experiment: Affinity for human CB2 receptors: inhibition of [3H]-CP55940 binding to membranes of transfected CHO-K1 cells; conditions: not given
T1 construct: expressed in transfected cells; membranes prepared from them
T1 sequence (P34972 whole entry): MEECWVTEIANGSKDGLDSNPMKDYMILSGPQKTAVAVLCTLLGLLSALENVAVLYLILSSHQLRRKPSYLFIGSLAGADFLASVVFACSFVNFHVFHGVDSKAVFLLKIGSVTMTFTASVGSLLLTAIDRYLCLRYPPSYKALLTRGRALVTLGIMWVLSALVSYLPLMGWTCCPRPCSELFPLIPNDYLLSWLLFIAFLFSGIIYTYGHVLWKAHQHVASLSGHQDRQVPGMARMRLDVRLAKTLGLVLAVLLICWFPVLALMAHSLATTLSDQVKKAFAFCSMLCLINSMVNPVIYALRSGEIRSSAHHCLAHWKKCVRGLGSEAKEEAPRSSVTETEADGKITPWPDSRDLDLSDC
Protocol: Study of the Affinity of the Compounds for Human Cannabinoid CB2 Receptors
The affinity of the compounds of the invention for human CB2 receptors was determined by measuring inhibition of [^3H]-CP55940 binding to membrane preparations produced from transfected CHO-K1 cells.
CHO-K1 cells stably expressing human CB2 receptors were cultured in RPMI 1640 medium supplemented with 10% foetal calf serum, 2 mM glutamine, 100 U/ml penicillin, 0.1 mg/ml streptomycin and 0.5 mg/ml G418. The cells were collected using 0.5 mM EDTA and centrifuged at 500 g for 5 min at 4° C. The cell pellet was resuspended in phosphate buffered saline (PBS) and centrifuged at 500 g for 5 min at 4° C. The pellet was resuspended in 50 mM tris buffer pH 7.4 and centrifuged at 500 g for 5 min at 4° C. The cells were lysed by sonication and centrifuged at 39,000 g for 10 min at 4° C. The pellet was resuspended in 50 mM tris buffer pH 7.4 and centrifuged at 50,000 g for 10 min at 4° C. The membranes obtained in this final pellet were stored at −80° C.
Competitive inhibition of the binding of [^3H]-CP55940 to CB2 receptors was determined in duplicate in 96-well polypropylene plates. Cell membranes (10 μg of protein/well) were incubated with [^3H]-CP55940 (1 nM) for 60 min at 25° C. in 50 mM Tris-HCl buffer, pH 7.4, containing 0.1% bovine serum albumin (BSA), 5 mM MgCl2, and 50 μg/ml of bacitracin.
Bound [^3H]-CP55940 was separated from free [^3H]-CP55940 by filtration through GF/C fibre glass filter plates (Unifilter, Packard) pre-impregnated with 0.1% polyethylenimine (P.E.I.), using a Filtermate 196 (Packard). The filters were washed with 50 mM Tris-HCl buffer, pH 7.4 at 0-4° C. and the radioactivity present was determined using a counter (Packard Top Count).
Specific binding was obtained by subtracting non-specific binding (determined in the presence of 0.1 μM WIN55212-2) from total binding. The data were analysed by computer-assisted nonlinear regression (MDL). For each test, the IC50 value was converted to a Ki value (inhibition constant) using the Cheng-Prusoff equation.
where [L] is the concentration of the radioligand used in the assay and Kd is the dissociation constant of the radioligand at equilibrium.

SMILES	Ki
COc1c(C(C)(C)C)cc(-c2csc(C3(N(C)C)CCOCC3)n2)cc1C(C)(C)C [Example 2, {4-[4-(3,5-di-tert-butyl-4-methoxyphenyl)-1,3-thiazol-2-yl]tetrahydro-2H-pyran-4-yl}dimethylamine hydrochloride]	≤ 100 nM
CN(C)C1(c2nc(-c3cc(C(C)(C)C)c(O)c(C(C)(C)C)c3)cs2)CCSCC1 [Example 6, 2,6-di-tert-butyl-4-{2-[4-(dimethylamino)tetrahydro-2H-thiopyran-4-yl]-1,3-thiazol-4-yl}phenol hydrochloride]	≤ 100 nM
CN(C)C1(c2nc(-c3cc(C(C)(C)C)c(O)c(C(C)(C)C)c3)cs2)CCOC1 (stereo not shown) [Example 7, 2,6-di-tert-butyl-4-{2-[3-(dimethylamino)tetrahydrofuran-3-yl]-1,3-thiazol-4-yl}phenol hydrochloride]	100 to 500 nM
COc1c(Cl)cc(-c2csc(C3(N(C)C)CCOCC3)n2)cc1C(C)(C)C [Example 13, {4-[4-(3-tert-butyl-5-chloro-4-methoxyphenyl)-1,3-thiazol-2-yl]tetrahydro-2H-pyran-4-yl}dimethylamine hydrochloride]	100 to 500 nM
COc1ccc(-c2csc(C3(N(C)C)CCOCC3)n2)cc1C(C)(C)C [Example 14, {4-[4-(3-tert-butyl-4-methoxyphenyl)-1,3-thiazol-2-yl]tetrahydro-2H-pyran-4-yl}dimethylamine hydrochloride]	500 to 1000 nM
CN(C)C1(c2nc(-c3cc(C(C)(C)C)c(O)c(C(C)(C)C)c3)co2)CCOCC1 [Example 15, 2,6-di-tert-butyl-4-{2-[4-(dimethylamino)tetrahydro-2H-pyran-4-yl]-1,3-oxazol-4-yl}phenol hydrochloride]	≤ 100 nM
CC(C)(C)c1cc(-c2csc(C3(N4CCCCC4)CCOCC3)n2)cc(C(C)(C)C)c1O [Example 20, 2,6-di-tert-butyl-4-[2-(4-piperidin-1-yltetrahydro-2H-pyran-4-yl)-1,3-thiazol-4-yl]phenol hydrochloride]	≤ 100 nM
CC(C)(C)c1cc(-c2csc(C3(N4CCOCC4)CCOCC3)n2)cc(C(C)(C)C)c1O [Example 21, 2,6-di-tert-butyl-4-[2-(4-morpholin-4-yltetrahydro-2H-pyran-4-yl)-1,3-thiazol-4-yl]phenol]	100 to 500 nM
COc1c(C(C)(C)C)cc(-c2nc(C3(N(C)C)CCOCC3)sc2C)cc1C(C)(C)C [Example 25, {4-[4-(3,5-di-tert-butyl-4-methoxyphenyl)-5-methyl-1,3-thiazol-2-yl]tetrahydro-2H-pyran-4-yl}dimethylamine hydrochloride]	100 to 500 nM

same assay, conditions: [3H]-CP55940 (1 nM) competition, CHO-K1 membranes; IC50 converted to Ki by Cheng-Prusoff; read-out: affinity for the CB2 receptor

Ki	SMILES
≤ 100 nM	CN(C)C1(c2nc(-c3cc(C(C)(C)C)c(O)c(C(C)(C)C)c3)cs2)CCOCC1 [Example 4, 2,6-di-tert-butyl-4-{2-[4-(dimethylamino)tetrahydro-2H-pyran-4-yl]-1,3-thiazol-4-yl}phenol hydrochloride]
100 to 500 nM	CN(C)C1(c2nc(-c3ccc(C(C)(C)C)cc3)cs2)CCOCC1 [Example 8, {4-[4-(4-tert-butylphenyl)-1,3-thiazol-2-yl]tetrahydro-2H-pyran-4-yl}dimethylamine hydrochloride]
100 to 500 nM	CN(C)C1(c2nc(-c3cc(C(C)(C)C)cc(C(C)(C)C)c3)cs2)CCOCC1 [Example 11, {4-[4-(3,5-di-tert-butylphenyl)-1,3-thiazol-2-yl]tetrahydro-2H-pyran-4-yl}dimethylamine hydrochloride]
100 to 500 nM	CN(C)C1(c2nc(-c3ccc(Oc4ccccc4)cc3)cs2)CCOCC1 [Example 16, N,N-dimethyl-4-[4-(4-phenoxyphenyl)-1,3-thiazol-2-yl]tetrahydro-2H-pyran-4-amine hydrochloride]
100 to 500 nM	CCNC1(c2nc(-c3cc(C(C)(C)C)c(O)c(C(C)(C)C)c3)cs2)CCOCC1 [Example 17, 2,6-di-tert-butyl-4-{2-[4-(ethylamino)tetrahydro-2H-pyran-4-yl]-1,3-thiazol-4-yl}phenol]
≤ 100 nM	CCN(CC)C1(c2nc(-c3cc(C(C)(C)C)c(O)c(C(C)(C)C)c3)cs2)CCOCC1 [Example 18, 2,6-di-tert-butyl-4-{2-[4-(diethylamino)tetrahydro-2H-pyran-4-yl]-1,3-thiazol-4-yl}phenol hydrochloride]
100 to 500 nM	CNC1(c2nc(-c3cc(C(C)(C)C)c(O)c(C(C)(C)C)c3)cs2)CCOCC1 [Example 19, 2,6-di-tert-butyl-4-{2-[4-(methylamino)tetrahydro-2H-pyran-4-yl]-1,3-thiazol-4-yl}phenol hydrochloride]
100 to 500 nM	CN1CCC(c2nc(-c3cc(C(C)(C)C)c(O)c(C(C)(C)C)c3)cs2)(N(C)C)CC1 [Example 23, 2,6-di-tert-butyl-4-{2-[4-(dimethylamino)-1-methylpiperidin-4-yl]-1,3-thiazol-4-yl}phenol hydrochloride]
500 to 1000 nM	CCN(CC)c1ccc(-c2csc(C3(N(C)C)CCOCC3)n2)cc1 [Example 28, (4-{4-[4-(diethylamino)phenyl]-1,3-thiazol-2-yl}tetrahydro-2H-pyran-4-yl)dimethylamine hydrochloride]
500 to 1000 nM	CN(C)C1(c2nc(-c3ccc(Cc4ccccc4)cc3)cs2)CCOCC1 [Example 29, {4-[4-(4-benzylphenyl)-1,3-thiazol-2-yl]tetrahydro-2H-pyran-4-yl}dimethylamine hydrochloride]
100 to 500 nM	CN(C)C1(c2nc(-c3ccc(Oc4ccc([N+](=O)[O-])cc4)cc3)cs2)CCOCC1 [Example 32, N,N-dimethyl-4-{4-[4-(4-nitrophenoxy)phenyl]-1,3-thiazol-2-yl}tetrahydro-2H-pyran-4-amine hydrochloride]
500 to 1000 nM	CN(C)C1(c2nc(-c3ccc(Sc4ccccc4)cc3)cs2)CCOCC1 [Example 33, N,N-dimethyl-4-{4-[4-(phenylthio)phenyl]-1,3-thiazol-2-yl}tetrahydro-2H-pyran-4-amine hydrochloride]

tested on: not given; experiment: not given; conditions: not given

melting point	SMILES
237.5 to 239 °C	COc1c(C)cc(-c2csc(C3(N(C)C)CCOCC3)n2)cc1C (as salt: hydrochloride)
127 to 130 °C	CN(C)C1(c2nc(-c3ccc(Oc4cccc(Cl)c4C#N)cc3)cs2)CCOCC1 (as salt: hydrochloride)
120 to 121 °C	COc1ccc(Oc2ccc(-c3csc(C4(N(C)C)CCOCC4)n3)cc2)cc1 (as salt: hydrochloride)
199.4 to 200.7 °C	COc1c(-c2csc(C3(N(C)C)CCOCC3)n2)cc(C(C)(C)C)cc1C(C)(C)C (as salt: hydrochloride)
205 to 207 °C	CN(C)C1(c2nc(-c3ccc(C(C)(C)C)cc3)cs2)CCOCC1 (as salt: hydrochloride) [Example 8, {4-[4-(4-tert-butylphenyl)-1,3-thiazol-2-yl]tetrahydro-2H-pyran-4-yl}dimethylamine hydrochloride]
232.2 to 233 °C	CN(C)C1(c2nc(-c3cc(C(F)(F)F)cc(C(F)(F)F)c3)cs2)CCOCC1 (as salt: hydrochloride) [Example 9, (4-{4-[3,5-bis(trifluoromethyl)phenyl]-1,3-thiazol-2-yl}tetrahydro-2H-pyran-4-yl)dimethylamine hydrochloride]
213 to 223.2 °C	CN(C)C1(c2nc(-c3ccc(Oc4ccccc4)cc3)cs2)CCOCC1 (as salt: hydrochloride) [Example 16, N,N-dimethyl-4-[4-(4-phenoxyphenyl)-1,3-thiazol-2-yl]tetrahydro-2H-pyran-4-amine hydrochloride]

SMILES	melting point
COc1c(C(C)(C)C)cc(-c2csc(C3(N(C)C)CCOCC3)n2)cc1C(C)(C)C (as salt: hydrochloride) [Example 2, {4-[4-(3,5-di-tert-butyl-4-methoxyphenyl)-1,3-thiazol-2-yl]tetrahydro-2H-pyran-4-yl}dimethylamine hydrochloride]	215 to 216.7 °C
COc1c(Cl)cc(-c2csc(C3(N(C)C)CCOCC3)n2)cc1C(C)(C)C (as salt: hydrochloride) [Example 13, {4-[4-(3-tert-butyl-5-chloro-4-methoxyphenyl)-1,3-thiazol-2-yl]tetrahydro-2H-pyran-4-yl}dimethylamine hydrochloride]	219.7 to 222.2 °C
COc1ccc(-c2csc(C3(N(C)C)CCOCC3)n2)cc1C(C)(C)C (as salt: hydrochloride) [Example 14, {4-[4-(3-tert-butyl-4-methoxyphenyl)-1,3-thiazol-2-yl]tetrahydro-2H-pyran-4-yl}dimethylamine hydrochloride]	232.7 to 233.5 °C
